Where “and” joins values, the source holds several entries; their conditions need not be identical. Identical values can stand only once.
What was measured:
[1] = system: Philadelphia chromosome-positive blast cells of CML patients in blast crisis, L-6 (b2a2) type junction; assay: Colony formation of CML blast crisis patient cells expressing the b2a2 (L-6) junction; format: cell-based, human
BV173 cells = assay: Clonogenic assay of tissues of leukemic SCID mice; format: in vivo, SCID mice (human leukemic cells)
Description: A second assay for leukemic disease comprised a clonogenic assay in semisolid medium. […] By contrast, BV173 cells formed numerous, rapidly growing colonies. To rule out the possibility that the presence of BV173 cells permitted the growth of murine progenitors, mixing experiments were carried out.
(§1) To determine whether synthetic phosphorothioate oligodeoxynucleotides targeted against the bcr-abl junction of […] cells would modify the disease process in SCID mice. SCID mice were injected with 10^6 BV173 cells. The mice then received 1 mg of sense (ATCAATAAGG AAGCCCTTCAGCG, SEQ ID NO:34) or antisense ([…] ATTGAT, SEQ ID NO:29) b2/a2 bcr-abl phosphorothioate oligodeoxynucleotides (pyrogen leven <1 Eu/mg; 0.2 ml in Iscove modified Dulbecco medium in 5-10 seconds) intravenously for each of 9 consecutive days, beginning either 7 or 21 days after introducing 10^6 BV173 cells. Control mice received the diluent (iscove's modified Dulbecco medium) only. These time points approximate distinct disease stages in humans.
10^5 cells were plated in duplicate in 35×10 mm tissue culture dishes (Nunc, Inc., Naperville, Ill.) in HCC-4230 medium (Terry Fox Lab., Vancouver, Canada) supplemented with 2.5 mM L-glutamine, and allowed to grow for 12 days. Plates were scanned with an inverted microscope and total colony number was determined. The results are shown in FIG. 9 (C, untreated mouse; S, sense-treated mouse, AS, antisense-treated mouse).

[2] = system: BV173 cells (cALL antigen (CALLA)-positive cells); assay: Immunofluorescence / flow cytometry of CALLA-positive cells in tissues of leukemic SCID mice; format: in vivo, SCID mice (human leukemic cells)
Description: A first assay comprised an immunofluorescence analysis of cALL antigen (CALLA)-positive cells. All BV173 cells but not normal murine hematopoietic cells express this antigen (assay sensitivity=10^-2). Single cell suspensions were prepared for flow cytometry analysis from peripheral blood, spleen and bone marrow cells of the leukemic SCID mice by centrifugation on a lymphocyte-M gradient (Cedarlane Labs, Ltd., Ontario, Canada). Cells (1×10^5) were stained with the FITC-conjugated mouse anti-CALLA monoclonal antibody (Becton-Dickinson Immunocytometry Systems, San Jose, Calif.) to human CD10 antigen. After staining, cells were washed and analyzed by flow cytometry using the Epics Profile Analyzer (Coulter Electronic).
as §1

[3] = 1 mg/day i.v. x9 from day +7, killed 26 days after last treatment (6 weeks)
[4] = 1 mg/mouse/day x9 from day +21, 26 days after treatment (8 weeks)
[5] = 1 mg/day i.v. x9 from day +7, 26 days after last treatment (6 weeks)
[6] = from day +21, 1 mg/day x9, 26 days after treatment (8 weeks)

SEQ ID NO:3: synthetic 18-mer GAAGGGCTTC TTCCTTAT specific for the 18-nucleotide target sequence of the L-6 bcr-abl junction (antisense GAAGGGCTTCTTCCTTAT; chemistry not given here)
% Inhibition ([1]; Table 1, patient 1, number of colonies vs untreated): 75% | Number of Colonies, Antisense-treated ([1]; Table 1, patient 3, 40 μg/ml at start, 20 μg/ml 18 h later, untreated 480 ± 88): 50 ± 12 colonies

SEQ ID NO:34: phosphorothioate sense sequence ATCAATAAGGAAGCCCTTCAGCG (23-mer b2a2 sense) (sense ATCAATAAGGAAGCCCTTCAGCG; all phosphorothioate, sugars by position and methylation of C not given here)
leukemic colonies, bone marrow and spleen (BV173 cells; [3]): numerous leukemic colonies | leukemic colonies, peripheral blood leukocytes (BV173 cells; [3]): A few colonies | leukemic colonies, bone marrow (BV173 cells; 1 mg/mouse/day i.v. x9 from day +7, killed 12 days after last treatment (4 weeks), untreated 353±52): 380±25 colonies | leukemic colonies, peripheral blood mononuclear cells (BV173 cells; 1 mg/mouse/day x9 from day +21, 12 days after last treatment (6 weeks), untreated 11.0±8.5): 14.5±4.9 colonies | leukemic colonies, spleen (BV173 cells; 1 mg/mouse/day x9 from day +21, 12 days after last treatment (6 weeks), untreated 80.5±12.0): 116.0±29.7 colonies | leukemic colonies, bone marrow (BV173 cells; 1 mg/mouse/day x9 from day +21, 12 days after last treatment (6 weeks), untreated 575.5±83.8): 668.5±59.1 colonies | leukemic colonies, bone marrow (BV173 cells; [4]): 839.5±41.7 colonies | leukemic colonies, peripheral blood (BV173 cells; [4]): 51.0±41.7 colonies and 51.0±14.1 colonies | leukemic colonies, spleen (BV173 cells; [4]): 548.5±128.0 colonies | CALLA+ cells, bone marrow ([2]; 1 mg/day i.v. x9 from day +7, 12 days after last treatment (4 weeks)): detected in bone marrow of control and sense-treated animal | CALLA+ cells, bone marrow [2, 5]: 16.8±1.8% | CALLA+ cells, peripheral blood [2, 5]: 1.9±0.2% | CALLA+ cells, spleen [2, 5]: 4.1±0.2% | CALLA+ cells, peripheral blood ([2]; from day +21, 1 mg/day x9, 12 days after last treatment (6 weeks), control 1.0±0.1): 0.9±0.1 | CALLA+ cells, spleen ([2]; from day +21, 1 mg/day x9, 12 days after last treatment (6 weeks), control 1.9±0.1): 1.9±0.8% | CALLA+ cells, bone marrow ([2]; from day +21, 1 mg/day x9, 12 days after last treatment (6 weeks), control 17.7±1.8): 10.0±0.5% | CALLA+ cells, bone marrow [2, 6]: 23.9±5.0% | CALLA+ cells, peripheral blood [2, 6]: 2.0±0.3% | CALLA+ cells, spleen [2, 6]: 9.9±1.8%

— US5652222A, “Selective inhibition of leukemic cell proliferation by bcr-abl antisense oligonucleotides” (Temple University-of The Commonwealth System of Higher …, priority 1993, dated 1997)
